Laboratory results: article PMC9088311, “Cyclic Thiosulfonates for Thiol-Mediated Uptake: Cascade Exchangers, Transporters, Inhibitors” (JACS Au, 2022)
Values after ≈ are worked out from the molar mass of the structure shown. Values joined by “and” are separate entries in the source; they are usually repeats but may differ in a detail not shown here. Identical values can stand only once.

Experiments:
HK cells, transporter 31 = experiment: HCHT imaging: inhibition of cytosolic delivery of ETP transporter 31; type: cell-based, Human; settings: co-incubation (C), inhibitor 1 h; for IC50 / IC15: Homo sapiens, 1 h; for IC50: read-out: IC50 (concentration needed to reach 50% inhibition), transporter 31 10 μM; for IC15: read-out: MIC (concentration needed to reach 15% inhibition), transporter 31 10 μM; for MIC (concentration needed to reach 15% inhibition): transporter 31 10 μM
Procedure: (§1) Uptake inhibition was measured by the automated HCHT imaging used already to elaborate on cytosolic delivery. For inhibitor screening, HK cells in multiwell plates were incubated with increasing concentrations of inhibitors, followed by fluorescent transporters 28, 31, and 32 at a constant concentration. […] If inhibitors are removed before the addition of transporters 28, 31, and 32, the method is referred to as “pre-incubation”. This is of interest to minimize exchange between the transporter and the inhibitor but is often problematic because dynamic covalent exchange between the inhibitor and cellular target can also be reversed and thus lost. The complementary “co-incubation” operates without inhibitor removal before the addition of transporters 28, 31, and 32.
(§2) 536/40 nm emission filter, and red with 531/40 nm excitation filter and 593/40 nm emission […]
(§3) 4.3. HCHT Inhibitor Screening
(§4) Pre-Incubation Method. As in ref. S1. HeLa Kyoto cells were seeded at 8 ×10^4 cells/mL in FluoroBrite DMEM + 10% FBS on μ-Plate 96-well Black ibiTreat sterile and incubated at 37 °C with 5% CO 2 for 24 h. Then, the medium was removed and cells were washed with PBS ([…]), fresh FluoroBrite DMEM medium (4 × 150 μL/well) was added into the cells using a plate washer (Biotek EL406®), keeping a final volume of 135 μL/well. Different concentrations of the inhibitors were prepared by serial dilution with 10% final concentration DMSO (10× in PBS). The solution of compounds 4 and 33 was prepared final DMSO concentration of 10% in each dilution (10× in PBS). These inhibitor solutions (10× final concentration), transporter 28 (10× in DMEM), transporters 31 and 32 (10× in PBS) a solution of HOE (100 μg/mL) and PI (10 μg/mL) in PBS were prepared freshly in a 96-well V-bottom plate before adding to the cells. The inhibitor solutions from the V-bottom plate were added to the cells (15 μL/well) in a final volume of 150 μL/well using an electronic multichannel pipette and cells were incubated for 1 h at 37 °C with 5% CO 2. After this incubation, cells were washed again with PBS and DMEM using the plate washer (in the way mentioned above), and transporter 28 , 31 or 32 from the V-bottom plate was added (15 μL/well) to the cells in a final volume of 150 μL/well. A final concentration of each transporter 28 , 31 and 32 was 5 μM, 10 μM and 0.5 μM, respectively, except for the control wells, where only PBS was added (15 μL/well). Cells treated with transporter 28 or 31 were incubated for 30 min, and cells treated with 32 were incubated for 2 h at 37 °C with 5% CO 2. After that, the cells were washed with PBS and DMEM using the plate washer, and the solution of Hoechst 33342 and PI from the V-bottom plate was added (15 μL/well) to the cells in a final volume of 150 μL/well. After 15 min of incubation at 37 °C with 5% CO 2, the cells were washed and kept in clean FluoroBrite
(§5) DMEM. For live cell imaging, samples were kept at 37 °C with 5% CO 2 during the microscope imaging. The distribution of fluorescence stained cells was analyzed without fixing using an […]

HeLa Kyoto cells = experiment: Relative viability (HOE/PI) in HCHT screening
Procedure: One advantage of HCHT imaging of cellular uptake compared to flow cytometry[38],[42],[43] is that it simultaneously gives information on toxicity and intracellular localization. […] Information on the intracellular localization of reporters can be quantified through segmentation of cellular compartments stained with specific markers.[52]
as §1
Relative cell viability ( RV) for each condition in the presence of inhibitors was calculated […]
of the relative cell viability ( RVrel) to the concentration of inhibitors ( cinhibitor ) was plotted and fitted with Equation (S19) to retrieve the concentration causing 50% cell growth inhibition (RV50) value and the Hill coefficient ( n).

in vitro = settings: human
[1] = Dynamic covalent ring opening with thiol 10, 1H NMR kinetics; type: physicochemical
Procedure: The dynamic covalent opening of CTO 3 with thiols yields product 9 with a disulfide and a sulfinate (Figure 3B). Consistent with short chalcogen bonds found in silico, the opening of CTO 3 was instantaneous on an NMR timescale with most thiols. To decelerate ring opening, bulky thiols were considered in combination with lowered pH to deactivate the nucleophile. With N-Ac-D-penicillamine 10, the opening of 5 mM CTO 3 in phosphate buffer/DMSO-d6 9:1 was still immediate at pD 6.7 but became detectable in ^1H NMR spectroscopy kinetics under more acidic conditions. The ring-opening rate constants k^O were estimated by fitting the initial velocities to second-order kinetics. Only lower bound rates were approximated from the earliest determined substrate conversions when reactions were still too fast despite the unfavorable conditions. At pD 5.4, dynamic covalent ring opening of CTO 3 with equimolar tertiary thiol 10 occurred with k^O > 0.49 M^–1 s^–1 and equilibrated at K = 6.0 × 10^3 M^–1 (Table 1, entry 1, Figures S4 and S5). At pD 2.7, further deceleration to k^O = 0.10 M^–1 s^–1 shifted the equilibrium to K = 500 M^–1 (Table 1, entry 2, Figures S6 and S7). […] At equilibrium, the concentration of thiol 10 further decreased slowly due to oxidation into the homodimer (Figure 3C, diamonds).
Equilibrium constants for reactions with two reactants A and B and a product C are […]
3.1.1. Dynamic Covalent Ring Opening with Thiols
General procedure A (at 5 mM): To a solution of deuterated sodium phosphate (200 mM in D 2O, pD 2.7 or 5.4, 180 mM final concentration), a stock solution of substrate (0.10 M in DMSO-d6, 5.0 mM final concentration) was added and stirred. Then a stock solution of 10 (0.10 M in DMSO- d6, 5.0 mM final concentration) was added and vigorously stirred at room temperature. The solution was transferred immediately to an NMR tube and NMR data were recorded repeatedly. The concentration of the substrate or thiol at each time plot was calculated by comparing the integrals of the peaks indicated with arrows in the figures, and plotted. The data points were fitted to obtain k1 with the Equation (S6) or (S7) using Graphpad Prism.
General procedure B (at 2 mM): To a solution of deuterated sodium phosphate (200 mM in D 2O, pD 2.7 or 5.4, 180 mM final concentration), DMSO- d6 (10% DMSO- d6 in the reaction mixture) and a stock solution of substrate (0.10 M in DMSO- d6, 2.0 mM final concentration) were added and stirred. Then a stock solution of 10 (0.10 M in DMSO- d6, 2.0 mM final concentration) was added and vigorously stirred at room temperature. The solution was transferred immediately to an NMR tube and NMR data were recorded repeatedly. The concentration of the substrate or thiol at each time plot was calculated by comparing the integrals of the peaks indicated with arrows in the figures, and plotted. The data points were fitted to obtain k1 with the Equation (S6) or (S7) using Graphpad Prism.
General procedure C (for thiosulfinates): To a solution of deuterated sodium phosphate (200 mM in D 2O, pD 5.4, 170 mM final concentration), a stock solution of substrate (0.10 M in DMSO- d6, 5.0 mM final concentration) was added and stirred. Then a stock solution of 10 (0.10 M in DMSO- d6, 10 mM final concentration) was added and vigorously stirred at room […]
data points were fitted to obtain k1 with the Equation (S14) or (S16) using Graphpad Prism. […]
3.1.2. Dependence of Ring Opening on Proticity
A mixture of deuterated phosphoric acid and NaOD (30% in D 2O), which gave pD 2.7 in D2O, was used as buffer in all solvent mixtures. To a solution of deuterated sodium phosphate (20 mM final concentration) in a mixture of D 2O and DMSO- d6 (540 μL, final D 2O content: […]
concentration) was added and stirred. Then a stock solution of 10 (0.10 M in DMSO- d6, 5.0 mM final concentration) was added and vigorously stirred at room temperature. The solution was transferred immediately to an NMR tube and 1H NMR data were recorded repeatedly. […]

HK cells, transporter 28 = experiment: HCHT imaging: inhibition of cytosolic delivery of CTO transporter 28; type: cell-based, Human; settings: pre-incubation (P), inhibitor 1 h
Procedure: as §1, §2, §3, §4, §5

[2] = with transporter 31, co-incubation (C)

| SMILES | IC50 (HK cells, transporter 31) [µM] | IC15 (HK cells, transporter 31) [µM] | MIC (concentration needed to reach 15% inhibition) (HK cells, transporter 31) [µM] | RV50 (concentration needed to lower relative viability by 50%) (HeLa Kyoto cells; [2]) [µM] | viability at 7 h, 50 µM (in vitro) [%] | further results |
| --- | --- | --- | --- | --- | --- | --- |
| O=S(O)CC(O)C(O)CSSCC(O)C(O)CS(=O)O (stereo not shown) [Compound 37] | 60 ± 20 | 6.8 | 7 | >50 | 97 |  |
| CSS(C)(=O)=O [Compound 14, reference compound] |  |  |  |  |  | k^O, rate constant of ring opening (or equivalent for acyclic controls) ([1]; equimolar 10, rt, pD 2.7, 90% D2O, Na+ phosphate 180 mM, substrate 2 mM): 0.52 M^–1 s^–1; krel^O, rate constant of ring opening relative to 3 ([1]; pD 2.7, 90% D2O, 2 mM): 5.2 |
| O=c1c2ccccc2[se]n1-c1ccccc1 [Compound 46, Ebselen, reference compound] | 49 | < 2 | <2 | >100 | 40 |  |
| CCN1C(=O)C2SSC1C(=O)N2CC(=O)NCCNC(=S)Nc1ccc(-c2c3ccc(=O)cc-3oc3cc(O)ccc23)c(C(=O)O)c1 (stereo not shown) [Compound 31, reference compound] |  |  |  |  |  | toxicity of transporters (in words) (HeLa Kyoto cells; conditions of HCHT screening (28 5 μM, 31 10 μM, 32 0.5 μM)): not toxic |
| CC(C)(C)[Si](C)(C)O[C@@H]1CS(=O)(=O)SC[C@@H]1O [Compound 6] | 5 ± 1 | < 1 |  |  |  | viability at 7 h, 5 µM (in vitro): 105 ± 7% |
| CC(C)(C)[Si](C)(C)O[C@@H]1CS(=O)(=O)SC[C@@H]1OC(=O)NCC[N+](C)(C)C [Compound 38] | 47 | 23 |  |  | 37 |  |
| C#CCNC(=O)CC[C@H](NC(=O)COCCNC(=O)O[C@H]1CSS(=O)(=O)C[C@H]1O[Si](C)(C)C(C)(C)C)C(=O)NCCOCCNC(=O)O[C@H]1CSS(=O)(=O)C[C@H]1O[Si](C)(C)C(C)(C)C [Compound 44] |  |  |  |  |  | RV50 (concentration needed to lower relative viability by 50%) (HeLa Kyoto cells; with transporter 28, pre-incubation (P)): 4.1 ± 0.3 µM and 4 µM; viability at 7 h, 10 µM (in vitro): 98% |
| CCCNC(=O)O[C@H]1CSS(=O)(=O)C[C@H]1O[Si](C)(C)C(C)(C)C [Compound 43] |  |  |  |  |  | IC15 (HK cells, transporter 28; Homo sapiens, 1 h, read-out: MIC (concentration needed to reach 15% inhibition), transporter 28 5 μM): 4.1 µM; IC50 (HK cells, transporter 28; Homo sapiens, read-out: IC50 (concentration needed to reach 50% inhibition), transporter 28 5 μM): > 50 µM; MIC (concentration needed to reach 15% inhibition) (HK cells, transporter 28; transporter 28 5 μM): 4 µM (≈ 1.53 µg/mL); viability at 7 h, 10 µM (in vitro): 87% |
| NCCNC(=O)O[C@H]1CSS(=O)(=O)C[C@H]1O [Compound 39] | > 50 | 14 |  | >50 | 86 |  |
| CC(=O)O[C@H]1CSS(=O)(=O)C[C@H]1O [Compound 36] | 27 | 2.1 | 2 | >50 | 97 |  |
| O=S1(=O)C[C@H](O)[C@@H](O)CS1 [Compound 15] | 22 | 1.5 |  | >500 |  | k^O, rate constant of ring opening ([1]; equimolar 10, rt, pD 2.7, 90% D2O/DMSO-d6, Na+ phosphate 180 mM, substrate 5 mM): >0.56 M^–1 s^–1; krel^O, rate constant of ring opening relative to 3 ([1]; pD 2.7, 90% D2O, 5 mM): >5.6; ring opening faster than 3 (fold) ([1]; with thiol 10, pD 2.7): 5 × |
| O=S(O)CC(O)C(O)CSSCCSSCC(O)C(O)CS(=O)O (stereo not shown) [Compound 40] | 50 | 7.8 | 8 | >50 | 96 |  |
| O=C(O)c1cc(SSc2ccc([N+](=O)[O-])c(C(=O)O)c2)ccc1[N+](=O)[O-] [Compound 16, 5,5’-Dithiobis(2-nitrobenzoic acid), reference compound] |  |  |  |  |  | k^O, rate constant of ring opening (or equivalent for acyclic controls) ([1]; equimolar 10, rt, pD 5.4, 90% D2O/DMSO-d6, Na+ phosphate 180 mM, substrate 5 mM): 0.11 M^–1 s^–1; krel^O, rate constant of ring opening relative to 3 ([1]; pD 5.4, 90% D2O, 5 mM): <0.22; ring opening/exchange slower than CTO 3 (fold) ([1]; with thiol 10, pD 5.4): > 5 ×; viability at 7 h, 5 µM (in vitro): 89% |
